Assay results: patent US12207654B2, “Bactericidal agent for agricultural or horticultural use, plant disease control method, and product for plant disease control use” (Kureha Corporation, priority 2019, dated 2025)
Several values for one entry are separate records, joined by “and”; a condition that tells them apart may be missing. Identical values can stand only once.

Legend:
[1] = tested on: wheat leaf rust (Puccinia recondita); experiment: Controlling effect test against wheat leaf rust (foliar spray on potted wheat seedlings); format: in vivo; conditions: sprayed alone
[2] = tested on: Colletotrichum lindemuthianum; experiment: In vitro antimicrobial activity test in 96-well microplate (absorbance at 620 nm); format: cell-based; conditions: used alone
Fusarium graminearum = experiment: microbe, parasite or virus in culture; format: cell-based; conditions: Fusarium graminearum, read-out: Actual fungal growth inhibition rate (%)
Cercospora beticola = experiment: In vitro antimicrobial activity test in 96-well microplate (absorbance at 620 nm); format: cell-based; conditions: used alone
Gaeumannomyces graminis = experiment: In vitro antimicrobial activity test on PDA plate media (colony diameter); format: cell-based; conditions: used alone
Pyrenophola teres = experiment: as above; conditions: read-out: Actual fungal growth inhibition rate (%)
Fusarium fujikuroi = experiment: as above; format: cell-based; conditions: Fusarium fujikuroi, used alone, read-out: Actual fungal growth inhibition rate (%)
Glomerella cingulata = experiment: as above; format: cell-based; conditions: used alone
[3] = tested on: Alternaria alternata apple pathotype; experiment: as above; format: cell-based; conditions: used alone
Pyrenophora graminea = experiment: as above; format: cell-based; conditions: used alone

## COC(=O)C(O)(Cn1cncn1)c1ccc(Oc2ccc(Cl)cc2)cc1Cl (centres unmarked) [Azole derivative I-1, methyl 2-hydroxy-2-(2-chloro-4-(4-chlorophenoxy)phenyl)-3-(1H-1,2,4-triazole-1-yl)propanoate]
[1]; 0.63 g/ha
  Actual controlling rate: 16% and 11%
[1]; 1.25 g/ha
  Actual controlling rate: 40% and 67%
[1]; 2.5 g/ha
  Actual controlling rate: 83% and 98%
[2]; Colletotrichum lindemuthianum, 0.10 ppm, read-out: Actual growth inhibition rate
  inhibition at 0.1 ppm: 0%
Fusarium graminearum
  inhibition at 0.25 ppm: 0%
Cercospora beticola; Cercospora beticola, 0.02 ppm, read-out: Actual growth inhibition rate
  inhibition at 0.02 ppm: 0%
Cercospora beticola; Cercospora beticola, 0.5 ppm, read-out: Actual growth inhibition rate
  inhibition at 0.5 ppm: 6%
Cercospora beticola; Cercospora beticola, 2.5 ppm, read-out: Actual growth inhibition rate
  inhibition at 2.5 ppm: 99%
Gaeumannomyces graminis; Gaeumannomyces graminis, 0.03 ppm, read-out: Actual fungal growth inhibition rate (%)
  inhibition at 0.03 ppm: 31%
Gaeumannomyces graminis; Gaeumannomyces graminis, 0.13 ppm, read-out: Actual fungal growth inhibition rate (%)
  inhibition at 0.13 ppm: 94%
Gaeumannomyces graminis; 0.03 ppm
  Actual fungal growth inhibition rate (%): 28%
Gaeumannomyces graminis; 0.13 ppm
  Actual fungal growth inhibition rate (%): 93%
Pyrenophola teres
  inhibition at 0.25 ppm: 48%
Fusarium fujikuroi; 0.01 ppm
  inhibition at 0.01 ppm: 0%
Fusarium fujikuroi; 0.03 ppm
  inhibition at 0.03 ppm: 4%
Fusarium fujikuroi; 0.50 ppm
  inhibition at 0.5 ppm: 59%
Glomerella cingulata; Colletotrichum gloeosporioides, 0.01 ppm, read-out: Actual fungal growth inhibition rate (%)
  inhibition at 0.01 ppm: 0%
Glomerella cingulata; Colletotrichum gloeosporioides, 0.03 ppm, read-out: Actual fungal growth inhibition rate (%)
  inhibition at 0.03 ppm: 9%
Glomerella cingulata; Colletotrichum gloeosporioides, 0.13 ppm, read-out: Actual fungal growth inhibition rate (%)
  inhibition at 0.13 ppm: 49%
Glomerella cingulata; Colletotrichum gloeosporioides, 0.50 ppm, read-out: Actual fungal growth inhibition rate (%)
  inhibition at 0.5 ppm: 77%
Glomerella cingulata; 0.50 ppm
  Actual fungal growth inhibition rate (%): 75%
[3]; Alternaria alternata, 0.01 ppm, read-out: Actual fungal growth inhibition rate (%)
  inhibition at 0.01 ppm: 0%
[3]; Alternaria alternata, 0.03 ppm, read-out: Actual fungal growth inhibition rate (%)
  inhibition at 0.03 ppm: 0%
[3]; 0.13 ppm
  Actual fungal growth inhibition rate (%): 1%
Pyrenophora graminea; Pyrenophora graminea, 0.01 ppm, read-out: Actual fungal growth inhibition rate (%)
  inhibition at 0.01 ppm: 37%
Pyrenophora graminea; Pyrenophora graminea, 0.03 ppm, read-out: Actual fungal growth inhibition rate (%)
  inhibition at 0.03 ppm: 71%
Pyrenophora graminea; Pyrenophora graminea, 0.50 ppm, read-out: Actual fungal growth inhibition rate (%)
  inhibition at 0.5 ppm: 94%
Pyrenophora graminea; 0.03 ppm
  Actual fungal growth inhibition rate (%): 70% and 68%
Pyrenophora graminea; 0.13 ppm
  Actual fungal growth inhibition rate (%): 81% and 80% and 57% and 82%
Pyrenophora graminea; 0.50 ppm
  Actual fungal growth inhibition rate (%): 95% and 93%

## Cc1cccc(-n2nnn(C)c2=O)c1COc1ccn(-c2ccc(Cl)cc2)n1 [Metyltetraprole, metyltetraprole]
[2]; 0.08 ppm
  Actual growth inhibition rate: 6%
[2]; 0.4 ppm
  Actual growth inhibition rate: 73%
[2]; 2.0 ppm
  Actual growth inhibition rate: 91%
Cercospora beticola; 0.08 ppm
  Actual growth inhibition rate: 72%
Pyrenophora graminea; 0.001 ppm
  Actual fungal growth inhibition rate (%): 0%
